As a reminder, the inhibition is the drop in the measured response relative to a control, in per cent.

One experiment concerns the target histamine receptor H1 (Homo sapiens, UniProt P35367). In words: Histamine H1 radioligand binding ([3H]Pyrilamine). To be noted: for inhibition at 1 µM: read-out: Histamine Binding (1 μM) H1, percent inhibition of specific binding, 1 μM. In outline: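 Values are percent inhibition of specific [3H]pyrilamine (1.2 nM) binding with compounds at ≤1 μM (1% DMSO vehicle); 180 min incubation at 25 °C, pH 7.4 Tris buffer, on CHO-expressed human H1 receptor; 1 μM pyrilamine defined nonspecific binding, bound ligand counted after filtration.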

Experiment [1] deals with human dopamine D2L receptor (Homo sapiens, UniProt P14416). The experiment can be described thus: Dopamine D2L radioligand binding ([3H]Spiperone). To be noted: percent inhibition of specific binding, compound at 1 μM; for inhibition at 1 µM: read-out: Inhibition of ligand binding, Dopamine D2L. The source says:
Non-specific binding was estimated in the presence of […] Haloperidol. Receptor proteins were filtered and washed, the filters were then counted to determine [^3H]Spiperone specifically bound. […] Biochemical assay results are presented as the percent inhibition of specific binding in Table 9.

The target of experiment [2] is T1, human recombinant serotonin (5-Hydroxytryptamine) 5-HT2A receptor (Homo sapiens, UniProt P28223).
T1 construct: expressed in transfected cells; host or cells: Chinese hamster ovary (CHO-K1) cells
T1 sequence (P28223 whole entry): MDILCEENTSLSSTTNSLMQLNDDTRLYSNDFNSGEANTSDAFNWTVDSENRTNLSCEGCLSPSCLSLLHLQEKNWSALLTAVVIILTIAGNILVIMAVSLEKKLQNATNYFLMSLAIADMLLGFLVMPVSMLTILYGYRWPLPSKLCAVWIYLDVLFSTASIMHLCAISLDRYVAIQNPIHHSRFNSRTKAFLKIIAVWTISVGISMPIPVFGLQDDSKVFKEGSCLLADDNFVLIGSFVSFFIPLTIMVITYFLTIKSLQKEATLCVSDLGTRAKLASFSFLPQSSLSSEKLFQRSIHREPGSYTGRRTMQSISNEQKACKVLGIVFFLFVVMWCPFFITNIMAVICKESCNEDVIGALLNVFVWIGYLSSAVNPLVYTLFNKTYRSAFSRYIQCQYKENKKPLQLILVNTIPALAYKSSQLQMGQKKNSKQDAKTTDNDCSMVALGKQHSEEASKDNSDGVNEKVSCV
In words: Serotonin 5-HT2A radioligand binding ([3H]Ketanserin). To be noted: read-out: Inhibition of ligand binding, Serotonin 5-HT2A (percent inhibition of specific binding), compound at 0.1 μM. On the procedure: Compounds of the invention were incubated with 0.5 nM [^3H]Ketanserin for 60 min. at 25° C. Non-specific binding was estimated in the presence of 1 μM Mianserin. Receptor proteins were filtered and washed, the filters were then counted to determine [^3H]Ketanserin specifically bound.

Experiment [3] has as its target T2, human recombinant serotonin (5-Hydroxytryptamine) 5-HT2C receptor (Homo sapiens, UniProt P28335).
T2 construct: expressed in transfected cells; host or cells: Chinese hamster ovary (CHO-K1) cells
T2 sequence (P28335 33-458): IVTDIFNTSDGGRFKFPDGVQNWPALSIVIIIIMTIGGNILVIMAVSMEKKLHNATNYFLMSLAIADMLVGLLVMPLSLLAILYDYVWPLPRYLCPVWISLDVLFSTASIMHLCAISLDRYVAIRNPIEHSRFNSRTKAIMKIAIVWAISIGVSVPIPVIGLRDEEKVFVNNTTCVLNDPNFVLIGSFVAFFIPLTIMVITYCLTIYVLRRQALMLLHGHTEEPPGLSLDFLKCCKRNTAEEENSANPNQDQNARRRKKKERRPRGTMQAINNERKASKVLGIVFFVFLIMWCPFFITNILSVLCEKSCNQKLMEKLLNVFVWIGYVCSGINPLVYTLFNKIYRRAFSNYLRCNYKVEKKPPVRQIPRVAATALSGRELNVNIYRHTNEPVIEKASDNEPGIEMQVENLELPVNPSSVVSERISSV
In words: Serotonin 5-HT2C radioligand binding ([3H]Mesulergine). To be noted: compound at 0.1 μM; read-out: Inhibition of ligand binding, Serotonin 5-HT2C (percent inhibition of specific binding). The method, then: Compounds of the invention were incubated with 1 nM [^3H]Mesulergine for 60 min. at 25° C. Non-specific binding was estimated in the presence of 1 μM Mianserin. Receptor proteins were filtered and washed, the filters were then counted to determine [^3H]Mesulergine specifically bound. Compounds were screened at 1 μM or lower, using 1% DMSO as vehicle. Biochemical assay results are presented as the percent inhibition of specific binding in Table 10.

Experiment [4] has as its target T3, human recombinant serotonin (5-Hydroxytryptamine) 5-HT6 receptor (Homo sapiens, UniProt P50406).
T3 construct: expressed in transfected cells; host or cells: human HeLa cells
In words: Serotonin 5-HT6 radioligand binding ([3H]LSD). To be noted: compound at 0.1 μM; read-out: Inhibition of ligand binding, Serotonin 5-HT6 (percent inhibition of specific binding). The method, then:
Compounds of the invention were incubated with 1.5 nM [3H]Lysergic acid diethylamide (LSD) for 120 min. at 37° C. […] Receptor proteins were filtered and washed, the filters were then counted to determine [3H]LSD specifically bound. Compounds were screened at 1 μM or lower, using 1% DMSO as vehicle. Biochemical assay results are presented as the percent inhibition of specific binding in Table 10.

The target in experiment [5] is human recombinant serotonin (5-Hydroxytryptamine) 5-HT7 receptor (Homo sapiens, UniProt P34969). In words: Serotonin 5-HT7 radioligand binding ([3H]LSD). To be noted: compound at 0.1 μM; read-out: Inhibition of ligand binding, Serotonin 5-HT7 (percent inhibition of specific binding). The source says: Receptor proteins were filtered and washed, the filters were then counted to determine [^3H]LSD specifically bound.
Sequence of human recombinant serotonin (5-Hydroxytryptamine) 5-HT7 receptor (P34969 whole entry): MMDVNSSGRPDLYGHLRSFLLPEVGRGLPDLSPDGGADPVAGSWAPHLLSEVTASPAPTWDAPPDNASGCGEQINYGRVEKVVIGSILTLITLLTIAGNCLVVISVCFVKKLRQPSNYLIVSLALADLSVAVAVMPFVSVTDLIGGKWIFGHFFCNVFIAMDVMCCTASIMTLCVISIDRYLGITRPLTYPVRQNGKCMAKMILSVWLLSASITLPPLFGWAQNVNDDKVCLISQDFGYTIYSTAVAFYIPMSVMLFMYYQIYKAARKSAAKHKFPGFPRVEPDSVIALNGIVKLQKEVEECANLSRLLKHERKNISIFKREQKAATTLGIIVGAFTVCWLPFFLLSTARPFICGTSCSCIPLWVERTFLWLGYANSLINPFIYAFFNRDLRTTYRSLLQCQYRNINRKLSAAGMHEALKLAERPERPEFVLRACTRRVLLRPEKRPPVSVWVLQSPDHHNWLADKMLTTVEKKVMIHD

Sequence of human dopamine D2L receptor (P14416 whole entry): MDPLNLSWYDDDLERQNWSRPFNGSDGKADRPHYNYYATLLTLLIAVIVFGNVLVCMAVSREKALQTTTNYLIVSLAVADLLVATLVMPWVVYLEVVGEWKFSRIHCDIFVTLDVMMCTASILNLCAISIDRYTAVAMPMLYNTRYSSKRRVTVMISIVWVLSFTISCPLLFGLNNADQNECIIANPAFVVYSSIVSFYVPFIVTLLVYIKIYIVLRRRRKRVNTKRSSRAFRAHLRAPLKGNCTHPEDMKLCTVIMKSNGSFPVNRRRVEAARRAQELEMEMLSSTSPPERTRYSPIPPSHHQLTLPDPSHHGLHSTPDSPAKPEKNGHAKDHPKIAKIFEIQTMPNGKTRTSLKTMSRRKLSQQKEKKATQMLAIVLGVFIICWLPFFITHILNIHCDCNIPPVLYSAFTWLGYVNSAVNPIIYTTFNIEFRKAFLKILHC
Sequence of histamine receptor H1 (P35367 whole entry): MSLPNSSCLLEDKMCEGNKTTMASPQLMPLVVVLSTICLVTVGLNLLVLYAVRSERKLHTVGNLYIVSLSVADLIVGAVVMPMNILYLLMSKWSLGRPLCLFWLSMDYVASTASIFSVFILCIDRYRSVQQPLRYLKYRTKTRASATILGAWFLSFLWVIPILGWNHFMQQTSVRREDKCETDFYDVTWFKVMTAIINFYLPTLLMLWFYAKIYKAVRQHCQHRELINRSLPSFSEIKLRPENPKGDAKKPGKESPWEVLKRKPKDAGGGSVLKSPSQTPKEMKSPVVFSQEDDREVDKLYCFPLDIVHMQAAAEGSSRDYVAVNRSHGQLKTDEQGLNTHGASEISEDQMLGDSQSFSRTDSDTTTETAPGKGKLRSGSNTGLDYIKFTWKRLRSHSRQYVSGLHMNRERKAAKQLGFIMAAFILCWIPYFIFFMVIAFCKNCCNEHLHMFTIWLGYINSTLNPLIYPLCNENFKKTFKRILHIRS
T3 sequence (P50406 whole entry): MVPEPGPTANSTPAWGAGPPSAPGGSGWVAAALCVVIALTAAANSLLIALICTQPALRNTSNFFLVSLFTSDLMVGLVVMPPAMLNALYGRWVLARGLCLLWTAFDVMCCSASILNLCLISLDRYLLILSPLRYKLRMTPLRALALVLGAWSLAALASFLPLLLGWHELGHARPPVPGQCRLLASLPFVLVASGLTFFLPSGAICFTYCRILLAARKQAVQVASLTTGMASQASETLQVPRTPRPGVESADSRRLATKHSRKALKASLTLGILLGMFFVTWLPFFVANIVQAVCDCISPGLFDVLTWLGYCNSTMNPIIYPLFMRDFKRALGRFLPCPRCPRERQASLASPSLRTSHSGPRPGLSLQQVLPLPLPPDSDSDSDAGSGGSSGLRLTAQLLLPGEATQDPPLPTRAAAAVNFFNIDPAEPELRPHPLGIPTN

On to `Cc1ccc2c(c1)c1c(n2CC(O)(c2ccncc2)C(C)C)CCN(C)C1` (stereo not drawn) [Compound 194, 1-(2,8-dimethyl-3,4-dihydro-1H-pyrido[4,3-b]indol-5(2H)-yl)-3-methyl-2-(pyridin-4-yl)butan-2-ol], for which the inhibition at 1 µM on histamine receptor H1 worked out at 9%; in experiment [1], 12%. Besides, the inhibition at 0.1 µM in experiment [2] came to 71%; in experiment [3] it was 47%; in experiment [4] it was 7%; in experiment [5], 16%.
In the case of `C/C(=C\n1c2c(c3cc(C)ccc31)CN(C)C(C)C2)c1ccncc1` (stereo not drawn) [Compound 257, (E)-2,3,8-trimethyl-5-(2-(pyridin-4-yl)prop-1-enyl)-2,3,4,5-tetrahydro-1H-pyrido[4,3-b]indole], the inhibition at 1 µM at histamine receptor H1 worked out at 18%; in experiment [1], 72%. Moreover, the inhibition at 0.1 µM was 94% in experiment [2], 94% in experiment [3], 71% in experiment [4] and 75% in experiment [5].
Take `CCC(O)(Cn1c2c(c3cc(Cl)ccc31)CN(C)CC2)c1ccncc1` (stereo not drawn) [Compound 195, 1-(8-chloro-2-methyl-3,4-dihydro-1H-pyrido[4,3-b]indol-5(2H)-yl)-2-(pyridin-4-yl)butan-2-ol]: the inhibition at 1 µM came out at 20% on histamine receptor H1 and 17% in experiment [1]. The inhibition at 0.1 µM in experiment [2] is 62%; in experiment [3] it was 43%; in experiment [4], 32%; in experiment [5] it was 18%.
On to `C/C(=C\n1c2c(c3cc(C)ccc31)CN(C)C(C)C2)c1ccc(F)cc1` (stereo not drawn) [Compound 258, (E)-5-(2-(4-fluorophenyl)prop-1-enyl)-2,3,8-trimethyl-2,3,4,5-tetrahydro-1H-pyrido[4,3-b]indole], for which the inhibition at 1 µM worked out at 59% at histamine receptor H1 and 81% in experiment [1]. In addition, the inhibition at 0.1 µM was 98% in experiment [2], 98% in experiment [3], 81% in experiment [4] and 84% in experiment [5].
For `C/C(=C\n1c2c(c3cc(Cl)ccc31)CN(C)C(C)C2)c1ccncc1` (stereo not drawn) [Compound 275, (E)-8-chloro-2,3-dimethyl-5-(2-(pyridin-4-yl)prop-1-enyl)-2,3,4,5-tetrahydro-1H-pyrido[4,3-b]indole], the results for the inhibition at 1 µM (at histamine receptor H1; in experiment [1]) were 39% and 92%, respectively. Also, the inhibition at 0.1 µM is 93% in experiment [2], 98% in experiment [3], 101% in experiment [4] and 72% in experiment [5].
On to `C/C(=C\n1c2c(c3cccc(Cl)c31)CN(C)CC2)c1ccc(C)nc1` [Compound 252, (E)-6-chloro-2-methyl-5-(2-(6-methylpyridin-3-yl)prop-1-enyl)-2,3,4,5-tetrahydro-1H-pyrido[4,3-b]indole], for which the inhibition at 1 µM at histamine receptor H1 was 22%; in experiment [1], 13%. In addition, the inhibition at 0.1 µM in experiment [2] worked out at 67%; in experiment [3], 50%; in experiment [4] it was 9%; in experiment [5], 23%.
`CC(=Cn1c2c(c3cc(Cl)ccc31)CN(C)CC2)c1ccc(F)cc1F` (stereo in doubt) [Compound 107, 8-chloro-5-((Z)-2-(2,4-difluorophenyl)prop-1-enyl)-2,3,4,5-tetrahydro-2-methyl-1H-pyrido[4,3-b]indole]: the “Histamine Binding (1 μM) H1, percent inhibition of specific binding” value on histamine receptor H1 (1 μM) was 88%. Besides, the “Inhibition of ligand binding, Dopamine D2L” value in experiment [1] (1 µM) amounted to 72%. The inhibition at 0.1 µM came out at 96% in experiment [2], 95% in experiment [3], 97% in experiment [4] and 95% in experiment [5].
As for `Cc1ccc2c(c1)c1c(n2CC(C)(O)c2cnccn2)CCN(C)C1` (stereo not drawn) [Compound 200, 1-(2,8-dimethyl-3,4-dihydro-1H-pyrido[4,3-b]indol-5(2H)-yl)-2-(pyrazin-2-yl)propan-2-ol], the results for the inhibition at 1 µM (on histamine receptor H1; in experiment [1]) were 45% and 6%, respectively. Moreover, the inhibition at 0.1 µM is 30% in experiment [2], 17% in experiment [3], 20% in experiment [4] and 31% in experiment [5].
As for `CCN1CCc2c(c3ccccc3n2/C=C(\C)c2ccncc2)C1` [Compound 266, (E)-2-ethyl-5-(2-(pyridin-4-yl)prop-1-enyl)-2,3,4,5-tetrahydro-1H-pyrido[4,3-b]indole], the inhibition at 1 µM on histamine receptor H1 is -1%; in experiment [1], 94%. Besides, the inhibition at 0.1 µM in experiment [2] was 67%; in experiment [3], 12%; in experiment [4], 81%; in experiment [5], 18%.
With `Cc1ccc2c(c1)c1c(n2/C=C(/c2ccncc2)C(C)(C)C)CCN(C)C1` [Compound 280, (E)-5-(3,3-dimethyl-2-(pyridin-4-yl)but-1-enyl)-2,8-dimethyl-2,3,4,5-tetrahydro-1H-pyrido[4,3-b]indole], the inhibition at 1 µM at histamine receptor H1 was found to be 12%; in experiment [1], 52%. In addition, the inhibition at 0.1 µM was found to be 83% in experiment [2], 86% in experiment [3], 56% in experiment [4] and 20% in experiment [5].
Regarding `CN1CCc2c(c3cc(Cl)ccc3n2CC(C)(O)c2cnccn2)C1` (stereo not drawn) [Compound 199, 1-(8-chloro-2-methyl-3,4-dihydro-1H-pyrido[4,3-b]indol-5(2H)-yl)-2-(pyrazin-2-yl)propan-2-ol], the inhibition at 1 µM was determined as 61% on histamine receptor H1 and 16% in experiment [1]. Besides, the inhibition at 0.1 µM in experiment [2] is 40%; in experiment [3], 33%; in experiment [4] it was 25%; in experiment [5] it was 30%.
Consider `C/C(=C\n1c2c(c3ccc(C(F)(F)F)cc31)CN(C)CC2)c1ccc(C)nc1` [Compound 250, (E)-2-methyl-5-(2-(6-methylpyridin-3-yl)prop-1-enyl)-7-(trifluoromethyl)-2,3,4,5-tetrahydro-1H-pyrido[4,3-b]indole], for which the inhibition at 1 µM on histamine receptor H1 turned out to be 12%; in experiment [1], 18%. The inhibition at 0.1 µM in experiment [2] came to 36%; in experiment [3], 31%; in experiment [4], 13%; in experiment [5], 33%.
For the compound `COc1ccc([C@](C)(O)Cn2c3c(c4cc(C)ccc42)CN(C)CC3)cc1` [Compound 191, 1-(2,8-dimethyl-3,4-dihydro-1H-pyrido[4,3-b]indol-5(2H)-yl)-2-(4-methoxyphenyl)propan-2-ol], the inhibition at 1 µM on histamine receptor H1 came out at 23%; in experiment [1], 15%. Besides, the inhibition at 0.1 µM in experiment [2] turned out to be 98%; in experiment [3] it was 94%; in experiment [4] it was 45%; in experiment [5] it was 69%.
For the compound `CCN1CCc2c(c3cc(C)ccc3n2/C=C(\C)c2ccncc2)C1` [Compound 269, (E)-2-ethyl-8-methyl-5-(2-(pyridin-4-yl)prop-1-enyl)-2,3,4,5-tetrahydro-1H-pyrido[4,3-b]indole], the inhibition at 1 µM on histamine receptor H1 is -2%; in experiment [1] it was 91%. In addition, the inhibition at 0.1 µM was 87% in experiment [2], 55% in experiment [3], 102% in experiment [4] and 51% in experiment [5].
